Consider 3 molecules from patent US12084473B2, “β-D-2′-deoxy-2′-α-fluoro-2′-β-C-substituted-2-modified-N6-substituted purine nucleotides for HCV treatment” (Atea Pharmaceuticals, Inc., priority 2015, dated 2024).

Where two headings read alike, the source gives them in different places. Some results are limits rather than exact numbers.

Data set [1] relates to HCV genotype 1b luciferase reporter replicon. The data set can be described thus: microbe, parasite or virus in culture. It is filed as cell-based.
Data set [2] relates to HCV Genotype 1b, NS5B Mutation C316N. The data set can be described thus: microbe, parasite or virus in culture. It is filed as cell-based. The conditions noted are these: for IC50: Hepatitis C virus, read-out: IC50 Value; for Fold Change in IC50 from Sofosbuvir / Fold Change in IC95 from Sofosbuvir / IC95 Value: genotype 1b, NS5B C316N. In outline:
(§1)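 Patient plasma HCV NS5B, RT-PCR-cloned into replicon RTVs, electroporated into Huh-7; replication sensitivity scored.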

Data set [3] deals with HCV Genotype 2a, NS5B Mutation none. The data set can be described thus: microbe, parasite or virus in culture. The conditions noted are these: for IC50: Hepatitis C virus, read-out: IC50 Value; for Fold Change in IC50 from Sofosbuvir / Fold Change in IC95 from Sofosbuvir / IC95 Value: genotype 2a, no NS5B mutation. It is filed as cell-based. The essentials: as §1
Data set [4] concerns HCV Genotype 1b, NS5B Mutation none. Nature of the data set: microbe, parasite or virus in culture. The data set is classed as cell-based. The conditions noted are these: for IC50: Hepatitis C virus, read-out: IC50 Value; for Fold Change in IC50 from Sofosbuvir / Fold Change in IC95 from Sofosbuvir / IC95 Value: genotype 1b, no NS5B mutation. The essentials:
as §1

Another data set has as its target T1, human DNA polymerase α (Homo sapiens, UniProt P09884).
T1 construct: purchased CHIMERx
T1 sequence (P09884 1-1462): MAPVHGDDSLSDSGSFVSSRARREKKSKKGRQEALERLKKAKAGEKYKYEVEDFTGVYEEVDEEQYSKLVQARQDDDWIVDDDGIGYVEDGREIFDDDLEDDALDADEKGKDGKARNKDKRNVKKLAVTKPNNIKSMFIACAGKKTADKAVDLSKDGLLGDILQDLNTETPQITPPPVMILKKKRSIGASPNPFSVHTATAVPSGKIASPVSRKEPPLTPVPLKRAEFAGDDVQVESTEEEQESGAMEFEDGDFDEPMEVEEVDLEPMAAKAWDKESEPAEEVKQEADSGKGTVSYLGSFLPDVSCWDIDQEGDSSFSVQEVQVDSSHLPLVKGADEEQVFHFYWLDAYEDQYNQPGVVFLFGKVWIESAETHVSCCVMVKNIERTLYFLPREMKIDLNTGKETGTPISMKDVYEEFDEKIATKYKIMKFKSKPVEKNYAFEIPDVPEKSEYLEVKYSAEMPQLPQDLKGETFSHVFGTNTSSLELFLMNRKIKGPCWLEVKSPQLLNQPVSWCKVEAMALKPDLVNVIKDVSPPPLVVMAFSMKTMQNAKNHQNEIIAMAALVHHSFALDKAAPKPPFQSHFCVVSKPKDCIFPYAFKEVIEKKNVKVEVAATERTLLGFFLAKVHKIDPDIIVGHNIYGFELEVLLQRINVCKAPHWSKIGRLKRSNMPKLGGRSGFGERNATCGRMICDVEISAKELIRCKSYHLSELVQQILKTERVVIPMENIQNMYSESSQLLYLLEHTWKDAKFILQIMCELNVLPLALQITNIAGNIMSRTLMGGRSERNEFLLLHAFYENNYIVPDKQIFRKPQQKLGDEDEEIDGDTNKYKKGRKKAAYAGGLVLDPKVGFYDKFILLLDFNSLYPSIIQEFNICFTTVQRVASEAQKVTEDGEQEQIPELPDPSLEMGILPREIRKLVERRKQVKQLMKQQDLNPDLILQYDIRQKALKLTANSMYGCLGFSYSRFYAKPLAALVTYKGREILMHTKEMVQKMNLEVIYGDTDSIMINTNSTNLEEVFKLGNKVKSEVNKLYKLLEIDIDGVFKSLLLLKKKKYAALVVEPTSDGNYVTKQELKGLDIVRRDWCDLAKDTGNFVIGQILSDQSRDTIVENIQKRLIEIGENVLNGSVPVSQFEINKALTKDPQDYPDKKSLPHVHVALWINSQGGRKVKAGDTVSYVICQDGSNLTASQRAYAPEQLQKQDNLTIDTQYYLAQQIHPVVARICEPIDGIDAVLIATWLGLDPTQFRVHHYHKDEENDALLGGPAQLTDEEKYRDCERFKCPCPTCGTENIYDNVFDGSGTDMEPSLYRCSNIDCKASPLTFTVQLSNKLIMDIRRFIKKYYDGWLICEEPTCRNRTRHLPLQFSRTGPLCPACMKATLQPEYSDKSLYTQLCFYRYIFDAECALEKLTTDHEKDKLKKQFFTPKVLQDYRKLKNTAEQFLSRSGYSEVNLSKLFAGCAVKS
The data set can be described thus: Human DNA Polymerase Assays. It is filed as biochemical. The conditions noted are these: at concentrations up to 100 μM. The protocol: Inhibition of human DNA polymerases α, β and γ (CHIMERx) was determined in triplicate in reaction mixtures of serially diluted TA, 0.05 mM dCTP, dTTP, and dATP, 10 μCi [^32P]-α-dGTP (800 Ci/mmol), 20 μg activated calf thymus DNA and additional reagents specific for each polymerase.

Another data set in a line: iPS Cardiomyocyte Assay. It is filed as cell-based, human. To be noted: human, iPS cardiomyocytes. The protocol:
iPS Cardiomyocytes (Cellular Dynamics) were seeded in microliter plates at 1.5×10^4 cells per well. After 48-hr incubation, cells were washed and maintenance medium containing serially diluted TA was added in triplicate. After incubating for an additional 3 days, cell viability was measured by staining with XTT and CC50 values were calculated.

A further data set has as its system host cell lines. Nature of the data set: Toxicity in host cell lines. It is filed as cell-based. To be noted: at concentrations up to 100 μM.
[5] abbreviates: Hepatitis C virus; Huh-7 luc/neo ET cells, 72 hours, luciferase; read-out: HCV Replicon EC50/EC95: EC95.
Where [6] appears, read: Hepatitis C virus; read-out: EC50 in a replicon assay.

The EC50 is the midpoint of the concentration-response curve. As a reminder, the IC50 is the point on the concentration scale where inhibition reaches its midpoint. With `CNc1nc(N)nc2c1ncn2[C@@H]1OC(CO[P@@](=O)(N[C@@H](C)C(=O)OC(C)C)Oc2ccccc2)[C@@H](O)[C@@]1(C)F` (some centres unmarked) [Compound 5-2], the “fold increase in activity (versus parent nucleoside)” value in data set [1] is ≥ 3,900. Moreover, the EC95 in data set [1] (setting [5]) was found to be 28 nM. The EC50 in data set [1] (setting [6]) stood at 4 nM. Moreover, the “Fold increase in activity compared to parent nucleoside” value (shortened to “Fold increase … to parent nucleoside”) in data set [1] (Table 7) is given as >3,900. In data set [2], the “cross-resistance to C316N mutant” value is listed as “neither 25, 27 nor 5-2 compound showed any evidence of cross-resistance”; the concentration for half-maximal inhibition (IC50) worked out at 7.7 nM; the “Fold Change in IC50 from Sofosbuvir” value came out at 9.6; the “Fold Change in IC95 from Sofosbuvir” value is given as 11.1. Moreover, the “IC95 Value” in data set [2] was found to be 42.7 nM. Further, in data set [3], the 50% inhibitory concentration (IC50) worked out at 6.2 nM, the “Fold Change in IC50 from Sofosbuvir” value is recorded as 3.6, the “Fold Change in IC95 from Sofosbuvir” value is given as 4.3 and the “IC95 Value” turned out to be 45.4 nM. In data set [4], the IC50 came out at 10.6 nM, the “Fold Change in IC50 from Sofosbuvir” value was 0.8, the “Fold Change in IC95 from Sofosbuvir” value is 8.9 and the “IC95 Value” stood at 72.4 nM.

By CC50 is commonly meant the concentration giving 50% cytotoxicity. A high value points to better tolerance by the cells. For the molecule `CC(C)OC(=O)[C@H](C)N[P@](=O)(OCC1O[C@@H](n2cnc3c(N(C)C)nc(N)nc32)[C@](C)(F)[C@@H]1O)Oc1ccccc1` (stereo partly drawn) [Compound 25, isopropyl ((((S)-(2R,3R,4R,5R)-5-(2-amino-6-(dimethylamino)-9H-purin-9-yl)-4-fluoro-3-hydroxy-4-methyltetrahydrofuran-2-yl)methoxy)-phenoxy-phosphoryl)-L-alaninate], the “inhibition of human DNA polymerase α” value on human DNA polymerase α is listed as “No inhibition”. In the data set “iPS Cardiomyocyte Assay”, this molecule came in with a CC50 at 3 day greater than 100000 nM. Further, in the data set with host cell lines, the “toxicity in all host cell lines” value is on record as “no toxicity”. Moreover, the “fold increase in activity (versus parent nucleoside)” value in data set [1] is ≥ 2,600. Further, the EC95 in data set [1] (setting [5]) came out at 19 nM. For the same molecule, the EC50 in data set [1] (setting [6]) amounted to 4 nM. Besides, the “Fold increase … to parent nucleoside” value in data set [1] (Table 7) is >2,600. Also, in data set [2], the “cross-resistance to C316N mutant” value is listed as “neither 25, 27 nor 5-2 compound showed any evidence of cross-resistance”; the IC50 was 3.2 nM; the “Fold Change in IC50 from Sofosbuvir” value is given as 23.1; the “Fold Change in IC95 from Sofosbuvir” value was determined as 26.2. The “IC95 Value” in data set [2] is 18.1 nM. In data set [3], the 50% inhibitory concentration (IC50) stood at 2.7 nM, the “Fold Change in IC50 from Sofosbuvir” value is on record as 8.4, the “Fold Change in IC95 from Sofosbuvir” value is recorded as 8.8 and the “IC95 Value” is listed as 22.2 nM. In addition, in data set [4], the IC50 is 5.9 nM, the “Fold Change in IC50 from Sofosbuvir” value worked out at 1.0, the “Fold Change in IC95 from Sofosbuvir” value stood at 20.0 and the “IC95 Value” came out at 32.0 nM.

As for `CC(C)OC(=O)[C@H](C)N[P@](=O)(OCC1O[C@@H](n2cnc3c(N(C)C4CC4)nc(N)nc32)[C@](C)(F)[C@@H]1O)Oc1ccccc1` (stereo partly drawn) [Compound 27, isopropyl ((((S)-(2R,3R,4R,5R)-5-(2-amino-6-(methylcyclopropanamino)-9H-purin-9-yl)-4-fluoro-3-hydroxy-4-methyltetrahydrofuran-2-yl)methoxy)-phenoxy-phosphoryl)-L-alaninate], the “inhibition of human DNA polymerase α” value on human DNA polymerase α is listed as “No inhibition”. The molecule also yielded a CC50 at 3 day in “iPS Cardiomyocyte Assay” greater than 100000 nM. For the same molecule, the “toxicity in all host cell lines” value in the data set on host cell lines is given as “no toxicity”. Moreover, the EC50 in data set [1] (Hepatitis C virus, read-out: EC50 in a replicon assay) was determined as 5 nM. For the same molecule, the EC95 in data set [1] (setting [5]) came out at 25 nM. For the same molecule, in data set [1] (Table 7), the “Fold increase … to parent nucleoside” value is given as >1,100. In data set [2], the “cross-resistance to C316N mutant” value was “neither 25, 27 nor 5-2 compound showed any evidence of cross-resistance”; the concentration for half-maximal inhibition (IC50) was determined as 3.1 nM; the “Fold Change in IC50 from Sofosbuvir” value is 23.5; the “Fold Change in IC95 from Sofosbuvir” value came to 28.7. The “IC95 Value” in data set [2] worked out at 16.5 nM. Moreover, in data set [3], the IC50 turned out to be 2.9 nM, the “Fold Change in IC50 from Sofosbuvir” value is recorded as 7.9, the “Fold Change in IC95 from Sofosbuvir” value is 12.0 and the “IC95 Value” is given as 16.2 nM. In data set [4], the IC50 turned out to be 5 nM, the “Fold Change in IC50 from Sofosbuvir” value is reported as 0.9, the “Fold Change in IC95 from Sofosbuvir” value is 22.2 and the “IC95 Value” stood at 28.9 nM.
